Patent US11479533B2, “Inhibitors of Rho associated coiled-coil containing protein kinase” (KADMON CORPORATION, LLC, priority 2017, dated 2022)

What was measured:
[1] = target: recombinant ROCK2 (amino acids 1-552) (Homo sapiens (Human), UniProt O75116); assay: Z'-lyte kinase assay, ROCK2; format: biochemical
Description: Determination of compounds ROCK inhibitory activity in vitro (Z'lyte assay): recombinant ROCK1 (amino acids 1-535) and ROCK2 (amino acids 1-552) proteins were purchased from ThermoFisher Scientific. Compounds activities were measured by Z'-lyte kinase kit (ThermoFisher Scientific) and IC50s were calculated.
Compounds activities were measured by Z'-lyte kinase kit (ThermoFisher Scientific). […] IC50s were calculated using the GraphPad Prism software with kinase activities data that were collected from 9 points serial dilution of compounds treatment. The ROCK inhibition in A7R5 cells and NIH3T3 (Acta2-Luc) cells was performed as described above.
The percent inhibition rate was calculated by normalizing the kinase activity value obtained with compound treatment against DMSO control value and then applied to the equation, […]. IC50's were calculated using the nonlinear regression curve fit function of the GraphPad Prism software with kinase activities data measured with 9 points 2-fold serial dilution of compounds treatment.

[2] = tested on: ppMlc (T18/S19) levels in A7R5 cells; assay: A7R5 in-cell ELISA assay (ppMlc); format: cell-based, rat; conditions: Rattus norvegicus, A7R5, A7R5 cells, Table 2; read-out: pMLC IC50 (nM) A7R5
Description: Determination of compounds ROCK inhibitory activity in A7R5 cells: rat aortic smooth muscle cell line A7R5 cells were maintained and treated in DMEM medium with 10% of fetal bovine serum. Cells were seeded with density of 5,000 cells/well in 96-well plates for 24 hours and subsequently treated 90 min with testing compounds. Cells were then fixed and processed according to the In-Cell ELISA Colorimetric Detection Kit manual (Thermo Scientific).
A7R5 cells were treated with 9 points 2 fold serial dilution of compounds and ppMlc (T18/S19) levels were determined in order to calculate the cellular IC50s of the compounds.
An A7R5 in-cell ELISA assay was performed to determine ROCK inhibition of test articles. A7R5 cells were treated with 9 points 2-fold serial dilution of compounds and ppMlc (T18/S19) levels were determined to calculate cellular IC50 values of the compounds. […] A7R5 cells were treated with 9 points 2-fold serial dilution of compounds and ppMlc (T18/S19) levels were determined to calculate cellular IC50 values of the compounds using the nonlinear regression curve fit function of the GraphPad Prism software.

[3] = tested on: ACTA2-promoter-driven-luciferase in NIH3T3 cells; assay: NIH3T3 Acta2-promoter driven-luciferase assay; format: cell-based; conditions: Mus musculus, plus TGFβ1, 24 hr, read-out: NIH3T3, Acta2-luc, IC50
Description: NIH3T3 cells Acta2-promoter driven-luciferase assay: A NIH3T3 cell line stably expressing a luciferase reporter driven by the human ACTA2 gene promoter (−1000-1 bp) was established (NIH3T3-Acta2-luciferase). The cells were plated to confluence and treated with the test compounds plus TGFβ1 for 24 hr. Cells were then lysed and luciferase activity was measured using the LightSwitch luciferase kit from Active Motif.
ROCK inhibitors can be effectively rank ordered by ACTA2-promoter-driven-luciferase reporter cell assay. NIH3T3 cells stably expressing ACTA2-promoter-driven-luciferase were applied to measure ROCK compounds functional IC50's in cells. Cells were plated in 96 well plates to confluence and treated with 9 points serial dilution of compounds in combination with TGFβ1 for 24 hr. Luciferase activities were measured and compound's IC50's were calculated using the nonlinear regression curve fit function of the GraphPad Prism software. Compounds of the invention gave in cell IC50's under 200 nM, see FIG. 1c.

recombinant ROCK2 (amino acids 1-552), sequence (O75116 1-552): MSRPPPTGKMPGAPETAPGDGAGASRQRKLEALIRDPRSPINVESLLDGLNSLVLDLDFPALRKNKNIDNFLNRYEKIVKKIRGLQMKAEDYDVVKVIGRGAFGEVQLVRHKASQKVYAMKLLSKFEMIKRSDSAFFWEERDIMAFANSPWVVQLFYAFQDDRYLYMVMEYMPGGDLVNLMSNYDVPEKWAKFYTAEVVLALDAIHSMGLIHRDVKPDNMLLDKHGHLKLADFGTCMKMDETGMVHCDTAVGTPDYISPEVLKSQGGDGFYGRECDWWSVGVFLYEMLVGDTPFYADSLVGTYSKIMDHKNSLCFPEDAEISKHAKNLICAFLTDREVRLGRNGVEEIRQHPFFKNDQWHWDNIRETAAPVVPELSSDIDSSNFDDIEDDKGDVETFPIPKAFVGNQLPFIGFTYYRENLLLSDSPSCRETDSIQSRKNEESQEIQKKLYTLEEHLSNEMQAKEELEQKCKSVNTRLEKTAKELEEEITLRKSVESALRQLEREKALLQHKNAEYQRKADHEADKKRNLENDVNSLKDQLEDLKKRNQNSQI

| SMILES | IC50 [1] [µM] | IC50 [2] [nM] | IC50 [3] [µM] |
| --- | --- | --- | --- |
| COCCN(C)C(C(=O)Nc1ccc(-c2cn[nH]c2)cc1)c1cccc(OC)c1 (stereo not drawn) [Example 47, N-(4-(1H-pyrazol-4-yl)phenyl)-2-((2-methoxyethyl)(methyl)amino)-2-(3-methoxyphenyl)acetamide] | 0.03 | 321 | 0.465 |
| COCCCNC(C(=O)Nc1ccc(-c2cn[nH]c2)cc1)c1cccc(OC)c1 (stereo not drawn) [Example 36, N-(4-(1H-pyrazol-4-yl)phenyl)-2-(3-methoxyphenyl)-2-((3-methoxypropyl)amino)acetamide] | 0.016 | 1580 | 1.55 |
| CCOCCNC(C(=O)Nc1ccc(-c2cn[nH]c2)cc1)c1cccc(OC)c1 (stereo not drawn) [Example 37, N-(4-(1H-pyrazol-4-yl)phenyl)-2-((2-ethoxyethyl)amino)-2-(3-methoxyphenyl)acetamide] | 0.037 | 977 | 2.31 |
| CCNC(C(=O)Nc1ccc(-c2cn[nH]c2)cc1)c1ccc(F)cc1 (stereo not drawn) [Example 12, N-(4-(1H-pyrazol-4-yl)phenyl)-2-(ethylamino)-2-(4-fluorophenyl)acetamide] | 0.03 | 458 | 0.735 |
| COc1cccc(C(NCCOC(C)C)C(=O)Nc2ccc(-c3cn[nH]c3)cc2)c1 (stereo not drawn) [Example 40, N-(4-(1H-pyrazol-4-yl)phenyl)-2-((2-isopropoxyethyl)amino)-2-(3-methoxyphenyl)acetamide] | 0.045 | 632 | 0.826 |
| CNC(C(=O)Nc1ccc(-c2cn[nH]c2)cc1)c1ccc(C(=O)O)cc1 (stereo not drawn) [Example 68, 4-(2-((4-(1H-pyrazol-4-yl)phenyl)amino)-1-(methylamino)-2-oxoethyl)benzoic acid] | 0.451 | > 5000 | > 5 |
| COCCNC(C(=O)Nc1ccc(-c2cn[nH]c2)cc1)c1cccc(OC)c1 (stereo not drawn) [Example 25, N-(4-(1H-pyrazol-4-yl)phenyl)-2-((2-methoxyethyl)amino)-2-(3-methoxyphenyl)acetamide] | 0.094 | 692 | 0.663 |
| COc1cccc(C(NCCOCC(F)(F)F)C(=O)Nc2ccc(-c3cn[nH]c3)cc2)c1 (stereo not drawn) [Example 54, N-(4-(1H-pyrazol-4-yl)phenyl)-2-(3-methoxyphenyl)-2-((2-(2,2,2-trifluoroethoxy)ethyl)amino)acetamide] | 0.068 | 1520 | 2.67 |
| COc1cccc(C(NCc2cn[nH]c2)C(=O)Nc2ccc(-c3cn[nH]c3)cc2)c1 (stereo not drawn) [Example 45, 2-(((1H-pyrazol-4-yl)methyl)amino)-N-(4-(1H-pyrazol-4-yl)phenyl)-2-(3-methoxyphenyl)acetamide] | 0.053 | 1360 | 1.46 |
| CNC(=O)c1ccc(C(NC)C(=O)Nc2ccc(-c3cn[nH]c3)cc2)cc1 (stereo not drawn) [Example 69, 4-(2-((4-(1H-pyrazol-4-yl)phenyl)amino)-1-(methylamino)-2-oxoethyl)-N-methylbenzamide] | 0.4 | > 5000 | > 5 |
| CN[C@@H](C(=O)Nc1cc(F)c(-c2cn[nH]c2)cc1OCCN(C)C)c1cccc(OC)c1 [Example 72, (R)—N-(2-(2-(dimethylamino)ethoxy)-5-fluoro-4-(1H-pyrazol-4-yl)phenyl)-2-(3-methoxyphenyl)-2-(methylamino)acetamide] | 0.046 | 382 | 0.984 |
| COCCNC(C(=O)Nc1ccc(-c2cn[nH]c2)c(F)c1)c1cccc(OC)c1 (stereo not drawn) [Example 55, N-(3-fluoro-4-(1H-pyrazol-4-yl)phenyl)-2-((2-methoxyethyl)amino)-2-(3-methoxyphenyl)acetamide] | 0.017 | 506 | 0.601 |
| CCNC(C(=O)Nc1ccc(-c2cn[nH]c2)cc1)c1cccc(F)c1 (stereo not drawn) [Example 15, N-(4-(1H-pyrazol-4-yl)phenyl)-2-(ethylamino)-2-(3-fluorophenyl)acetamide] | 0.024 | 655 | 1.05 |

These reach a lower IC50 [1]. Values come first.

| IC50 [1] [µM] | IC50 [2] [nM] | SMILES | IC50 [3] [µM] |
| --- | --- | --- | --- |
| 0.0031 | 47 | CNC(C(=O)Nc1ccc(-c2cn[nH]c2)cc1)c1ccc(C)cc1 (stereo not drawn) [Example 21, N-(4-(1H-pyrazol-4-yl)phenyl)-2-(methylamino)-2-(p-tolyl)acetamide] | 0.066 |
| 0.01 | 74 | COc1cccc(C(NCCN(C)C)C(=O)Nc2ccc(-c3cn[nH]c3)cc2)c1 (stereo not drawn) [Example 57, N-(4-(1H-pyrazol-4-yl)phenyl)-2-((2-(dimethylamino)ethyl)amino)-2-(3-methoxyphenyl)acetamide] | 0.175 |
| 0.003 | 57 | CNC(C(=O)Nc1cc(F)c(-c2cn[nH]c2)cc1OCCN(C)C)c1cccc(OC)c1 (stereo not drawn) [Example 71, N-(2-(2-(dimethylamino)ethoxy)-5-fluoro-4-(1H-pyrazol-4-yl)phenyl)-2-(3-methoxyphenyl)-2-(methylamino)acetamide] | 0.301 |
| 0.0016 | 15 | CN[C@H](C(=O)Nc1cc(F)c(-c2cn[nH]c2)cc1OCCN(C)C)c1cccc(OC)c1 [Example 73, (S)—N-(2-(2-(dimethylamino)ethoxy)-5-fluoro-4-(1H-pyrazol-4-yl)phenyl)-2-(3-methoxyphenyl)-2-(methylamino)acetamide] | 0.122 |
| 0.0053 | 152 | CNCCNC(C(=O)Nc1ccc(-c2cn[nH]c2)cc1)c1cccc(OC)c1 (stereo not drawn) [Example 26, N-(4-(1H-pyrazol-4-yl)phenyl)-2-(3-methoxyphenyl)-2-((2-(methylamino)ethyl)amino)acetamide] | 0.251 |
| 0.0068 | 353 | CNC(C(=O)Nc1ccc(-c2cn[nH]c2)cc1)c1cccc(C)c1 (stereo not drawn) [Example 14, N-(4-(1H-pyrazol-4-yl)phenyl)-2-(methylamino)-2-(m-tolyl)acetamide] | 0.496 |
| 0.014 | 647 | CNC(C(=O)Nc1ccc(-c2cn[nH]c2)cc1)c1ccnc(OC)c1 (stereo not drawn) [Example 29, N-(4-(1H-pyrazol-4-yl)phenyl)-2-(2-methoxypyridin-4-yl)-2-(methylamino)acetamide] | 0.146 |
| 0.0089 | 169 | CCNC(C(=O)Nc1ccc(-c2cn[nH]c2)cc1)c1ccc(Cl)cc1 (stereo not drawn) [Example 22, N-(4-(1H-pyrazol-4-yl)phenyl)-2-(4-chlorophenyl)-2-(ethylamino)acetamide] | 0.155 |
| 0.0012 | 65 | CN[C@@H](C(=O)Nc1ccc(-c2cn[nH]c2)cc1)c1ccc(Cl)cc1 [Example 65, (R)—N-(4-(1H-pyrazol-4-yl)phenyl)-2-(4-chlorophenyl)-2-(methylamino)acetamide] | 0.051 |
| 0.012 | 1250 | COc1cccc(C(NCC(N)=O)C(=O)Nc2ccc(-c3cn[nH]c3)cc2)c1 (stereo not drawn) [Example 41, N-(4-(1H-pyrazol-4-yl)phenyl)-2-((2-amino-2-oxoethyl)amino)-2-(3-methoxyphenyl)acetamide] | > 5 |
| 0.0053 | 115 | COCCNC(C(=O)Nc1ccc(-c2cn[nH]c2)c(OC)c1)c1cccc(OC)c1 (stereo not drawn) [Example 56, N-(3-methoxy-4-(1H-pyrazol-4-yl)phenyl)-2-((2-methoxyethyl)amino)-2-(3-methoxyphenyl)acetamide] | 0.078 |
| 0.003 | 108 | CN[C@H](C(=O)Nc1ccc(-c2cn[nH]c2)cc1)c1cccc(OC)c1 [Example 4, (S)—N-(4-(1H-pyrazol-4-yl)phenyl)-2-(3-methoxyphenyl)-2-(methylamino)acetamide] | 0.11 |
| 0.0063 | 425 | CCNC(C(=O)Nc1ccc(-c2cn[nH]c2)cc1)c1cccc(OC)c1 (stereo not drawn) [Example 13, N-(4-(1H-pyrazol-4-yl)phenyl)-2-(ethylamino)-2-(3-methoxyphenyl)acetamide] | 1.57 |
